# Earlier results in patent US10786531B2, “Mineral salt-sulfonic acid compositions and methods of use” (BMG PHARMA SPA, priority 2009, dated 2020).
# Where two headings read alike, the source gives them in different places.
# Experiments:
# [1] = system: dermal abrasion
# [2] = solutions of 0.2-1%
Compound,dermal irritancy ([1]; 1% aqueous),dermal irritancy ([1]; 20% suspension),also measured
CC(=O)[O-].CC(=O)[O-].[Zn+2] [zinc acetate],,,dermal irritancy ([1]; 20% aqueous): slightly less irritant
O=S(=O)([O-])[O-].[Zn+2] [zinc sulfate],not overtly irritant,,irritation when applied circumorally [2]: severe irritation
[O]=[Zn] [zinc oxide],,not overtly irritant,
zinc pyrithione,,not overtly irritant,
[Cl-].[Cl-].[Zn+2] [zinc chloride],severe irritant,,
